Results as given in patent US8440628B2, “Medical compositions containing ghrelin” (Daiichi Sankyo Company, Limited, priority 2002, dated 2013).

Key:
[1] = Stability of human ghrelin in citrate buffer solutions, 40°C/2 weeks (Example 4); assay type: physicochemical
Experimental: The obtained solutions were filled in brownish glass ampoules and the ampoules were sealed with fire, then, each ampoules were stored at 40±1° C. for 2 weeks. After storage for 2 weeks, the HPLC analysis of the solutions was conducted to calculate the residual ratio from the concentration of human ghrelin. The change of pH value was also measured.

[2] = Adsorption inhibiting effect of anti-adsorbents on human ghrelin in glass and polypropylene test tubes (Example 9); assay type: physicochemical; conditions: human ghrelin 1.0 μg/mL in 5% mannitol-0.05M glycine hydrochloride buffer (pH 3.5), anti-adsorbent None (control)
Experimental: As the anti-adsorbent, the surfactant, that is, polyoxyethylene sorbitan monooleate (hereinafter, referred to as Tween® 80), and benzalkonium chloride were selected.
The anti-adsorbent was added to this solution with 0.01% or 0.1% concentration.
The human ghrelin concentrations of each solution were measured by HPLC method right after preparation, and these solutions were replaced in glass test tubes. After that, each solution were further replaced in new glass test tubes, and same operation was repeated for 5 and 10 times, then, the human ghrelin concentrations of each treated solution were measured by HPLC method. As a control, the solution not containing anti-adsorbent was examined.
Same procedure was repeated by using test tube made by polypropylene instead of glass test tube.

[3] = human ghrelin 0.5 mg/mL in citrate buffer solution pH 3.5, after storage for 40° C./2 weeks
[4] = human ghrelin 0.5 mg/mL in citrate buffer solution pH 3.5, just after preparation
[5] = human ghrelin 0.5 mg/mL in citrate buffer solution pH 4.0, after storage for 40° C./2 weeks
[6] = human ghrelin 0.5 mg/mL in citrate buffer solution pH 4.0, just after preparation
[7] = human ghrelin 0.5 mg/mL in citrate buffer solution pH 4.5, after storage for 40° C./2 weeks
[8] = human ghrelin 0.5 mg/mL in citrate buffer solution pH 4.5, just after preparation
[9] = human ghrelin 0.5 mg/mL in citrate buffer solution pH 5.0, after storage for 40° C./2 weeks
[10] = human ghrelin 0.5 mg/mL in citrate buffer solution pH 5.0, just after preparation

CCCCCCCC(=O)OC[C@H](NC(=O)[C@H](CO)NC(=O)CN)C(=O)N[C@@H](Cc1ccccc1)C(=O)N[C@@H](CC(C)C)C(=O)N[C@@H](CO)C(=O)N1CCC[C@H]1C(=O)N[C@@H](CCC(=O)O)C(=O)N[C@@H](Cc1c[nH]cn1)C(=O)N[C@@H](CCC(N)=O)C(=O)N[C@@H](CCCNC(=N)N)C(=O)N[C@H](C(=O)N[C@@H](CCC(N)=O)C(=O)N[C@@H](CCC(N)=O)C(=O)N[C@@H](CCCNC(=N)N)C(=O)N[C@@H](CCCCN)C(=O)N[C@@H](CCC(=O)O)C(=O)N[C@@H](CO)C(=O)N[C@@H](CCCCN)C(=O)N[C@@H](CCCCN)C(=O)N1CCC[C@H]1C(=O)N1CCC[C@H]1C(=O)N[C@@H](C)C(=O)N[C@@H](CCCCN)C(=O)N[C@@H](CC(C)C)C(=O)N[C@@H](CCC(N)=O)C(=O)N1CCC[C@H]1C(=O)N[C@@H](CCCNC(=N)N)C(=O)O)C(C)C [Human ghrelin]
Residual ratio [1, 3]: 89%
pH observed [1, 3]: 3.5
Residual ratio [1, 4]: 100%
pH observed [1, 4]: 3.6
Residual ratio [1, 5]: 88%
pH observed [1, 5]: 4.0
Residual ratio [1, 6]: 100%
pH observed [1, 6]: 4.0
Residual ratio [1, 7]: 86%
pH observed [1, 7]: 4.4
Residual ratio [1, 8]: 100%
pH observed [1, 8]: 4.5
Residual ratio [1, 9]: 85%
pH observed [1, 9]: 4.9
Residual ratio [1, 10]: 100%
pH observed [1, 10]: 5.0
Human ghrelin concentration of the solution (Initial Conc. = 100) ([2]; Glass tube, replaced 5 times): 0
Human ghrelin concentration of the solution (Initial Conc. = 100) ([2]; Glass tube, replaced 10 times): 0
Human ghrelin concentration of the solution (Initial Conc. = 100) ([2]; Initial Conc.): 100
Human ghrelin concentration of the solution (Initial Conc. = 100) ([2]; Polypropylene tube, replaced 5 times): 51
Human ghrelin concentration of the solution (Initial Conc. = 100) ([2]; Polypropylene tube, replaced 10 times): 19
